Marks after values point to notes of the source that are not given here.

Experiment [1] can be described thus: Appetite suppression in mice, chronic assay (body weight). The format is in vivo. As to the method: Mice were injected i.p. at intervals of 2 or 3 days and weighed repeatedly (6 or 7 total injections). Controls were injected with saline. Weighing and injection were carried out between 11 AM and 1 PM.
The subject of experiment [2] is itch-associated scratching induced by compound 48-80. The experiment can be described thus: Animal model for OCD: compound 48-80-induced scratching. The format is in vivo, male Swiss-Webster mice. As to the method:
(§1) The 5-HT action is at least partly mediated by 5-HT2 receptors in the skin, as shown by blocking with specific antagonists (Yamaguchi, T., Nagasawa, T., Satoh, M., Kuraishi, Y. “Itch-associated Response Induced by Intradermal Serotonin Through 5-HT2 Receptors in Mice” Neurosci. Res. 1999, 35, 77). The effect of test compounds on itch-associated scratching in the mice may indicate their action on 5-HT receptors, and a study was carried out as an animal model for OCD. The subjects were male Swiss-Webster mice, 4-6 weeks old, weighing 25-45 g. Mice were housed 5 per cage, given free access to standard mouse food and water except during experiments, and maintained in a temperature-controlled room (70° F.). Serotonin and all test drugs were made up with ascorbic acid to protect against oxidation. Two mice, one a control, the other experimental, were tested each time. Each mouse was separately placed into a plexiglas box.
Mice were injected subcutaneously between the shoulder blades with either 0.1 ml of serotonin, 0.4 mg per ml in 0.15 M saline plus ascorbic acid, 1 mg/ml, or compound 48-80 (the copolymer product of N-methyl-p-methoxyphenethylamine with formaldehyde), 1.0 mg/ml in saline plus ascorbic acid. Test compounds were injected i.p. 5 minutes before the inducer. The cumulative number of scratches with a hind leg was recorded at 5 minute intervals for 30 minutes. […]

Experiment [3] has as its system itch-associated scratching induced by serotonin. The experiment can be described thus: Animal model for OCD: serotonin-induced scratching. The experiment is classed as in vivo, male Swiss-Webster mice. Conditions: for Number of Scratches as Percentage of Control: inducer Serotonin. The procedure: as §1
Mice were injected subcutaneously between the shoulder blades with either 0.1 ml of serotonin, 0.4 mg per ml in 0.15 M saline plus ascorbic acid, 1 mg/ml, or compound 48-80 (the copolymer product of N-methyl-p-methoxyphenethylamine with formaldehyde), 1.0 mg/ml in saline plus ascorbic acid. Test compounds were injected i.p. 5 minutes before the inducer. The cumulative number of scratches with a hind leg was recorded at 5 minute intervals for 30 minutes. One saline injected control and one test animal were tested together in each assay.

Experiment [4] is described as follows: Appetite suppression in mice, acute assay (food consumption). The format is in vivo. Conditions: for Mean food consumption 60 min. after injection: g (±SEM) Compound / Mean food consumption 90 min. after injection: g (±SEM) Compound: mice deprived of food 18 hours. As to the method:
Mice were deprived of food, but not water, for 18 hours. They were then injected i.p. with test compounds dissolved in 0.9% NaCl containing 1 mg per ml ascorbic acid for protection against oxidation. Each mouse was placed in an individual cage for 30 minutes and then presented with a small petri dish containing a gel made from gelatin, powdered milk and sucrose. The dish was weighed at zero time and at 15-minute intervals for the next hour in order to quantitate food consumption. Controls were injected with saline-ascorbic acid; ±fenfluramine was used as an active control. Control consumption generally ranged from 1.5 to 2.0 grams.

Experiment [5] has as its target T1, 5-HT2C (Homo sapiens, UniProt P28335).
T1 sequence (P28335 33-458): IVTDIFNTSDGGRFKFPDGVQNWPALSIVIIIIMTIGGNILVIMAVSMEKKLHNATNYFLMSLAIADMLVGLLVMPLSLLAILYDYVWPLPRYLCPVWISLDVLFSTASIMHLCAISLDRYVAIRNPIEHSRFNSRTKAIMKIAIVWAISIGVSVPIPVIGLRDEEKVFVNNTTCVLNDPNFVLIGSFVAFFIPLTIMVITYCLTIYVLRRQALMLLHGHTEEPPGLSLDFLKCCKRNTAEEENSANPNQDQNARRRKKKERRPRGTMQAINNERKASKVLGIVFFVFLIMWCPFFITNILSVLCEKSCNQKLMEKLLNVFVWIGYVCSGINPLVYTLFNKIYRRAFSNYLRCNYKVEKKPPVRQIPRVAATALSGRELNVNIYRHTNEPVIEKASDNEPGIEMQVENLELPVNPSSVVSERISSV
To be noted: background, literature; cited from earlier work.

[6] abbreviates: 20 mg/kg i.p. at intervals of 2 or 3 days.
[7] abbreviates: 30 mg/kg i.p. at intervals of 2 or 3 days.

In the case of `CN(C)CCc1cn(C)c2c(F)ccc(OP(=O)(O)O)c12` [Compound O-3944, 3-(2-Dimethylaminoethyl)-7-fluoro-1-methyl-1H-indol-4-phosphate], the entries for the “Day 7 % Δ from starting weight” value in experiment [1] (setting [6]) and in experiment [1] (setting [7]) were −1.75* % and −3.66* %, respectively. For the same compound, the figures for the “Day 7 Difference within same group” value in experiment [1] (setting [6]) and in experiment [1] (setting [7]) were -0.78 g and -1.89 g, respectively. The “Day 14 % Δ from starting weight” value in experiment [1] (setting [6]) is listed as −2.04* %; in experiment [1] (setting [7]), −4.13* %. For the same compound, the entries for the “Day 14 Difference within same group” value in experiment [1] (setting [6]) and in experiment [1] (setting [7]) were -0.91 g and -2.13 g, respectively. In addition, the “Average Number of Scratches 30 min. after injection” value in experiment [2] (30 mg/kg i.p. 5 minutes before inducer 48-80) is 0*; in experiment [3] (2 mg/kg i.p. 5 minutes before inducer Serotonin), 231.6; in experiment [3] (5 mg/kg i.p. 5 minutes before inducer Serotonin), 113.4*. In addition, the “Number of Scratches as Percentage of Control” value in experiment [2] (30 mg/kg i.p., inducer 48-80) was 0%; in experiment [3] (2 mg/kg i.p.), 39.3%; in experiment [3] (5 mg/kg i.p.) it was 20.2%. For the same compound, the “% of Control (food consumption 60 min. after injection)” value in experiment [4] (10 mg/kg i.p.) was 74%; in experiment [4] (20 mg/kg i.p.), 41%; in experiment [4] (30 mg/kg i.p.) it was 15%. The “% of Control (food consumption 90 min. after injection)” value in experiment [4] (10 mg/kg i.p.) was 75%; in experiment [4] (20 mg/kg i.p.) it was 62%; in experiment [4] (30 mg/kg i.p.) it was 55%. Also, the “Mean food consumption 60 min. after injection: g (±SEM) Compound” value in experiment [4] (10 mg/kg i.p.) is 0.84 (.17) g; in experiment [4] (20 mg/kg i.p.), 0.56 (.10)* g; in experiment [4] (30 mg/kg i.p.), 0.13 (.05)* g. In addition, the “Mean food consumption 90 min. after injection: g (±SEM) Compound” value is listed as 1.38 (.13) g in experiment [4] (10 mg/kg i.p.), 1.05 (.14)* g in experiment [4] (20 mg/kg i.p.) and 0.65 (.11)* g in experiment [4] (30 mg/kg i.p.).

On to `C[C@H](N)Cn1ccc2cc(F)c(Cl)cc21` [Ro 60-0175], for which the “times more active at 5-HT2C as compared to 5-HT2A” value in experiment [5] is reported as 25 times.
